This data set in a line: gradient 5% acetonitrile 3 min, to 50% in 2 min, to 85% in 15 min, held 3 min, 100 µL/min. The conditions noted are these: column: Zorbax Extend-C18 2.1 x 50 mm; eluents: water / acetonitrile, 0.1% formic acid. A digest of the protocol: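 Retention times of pure standards were taken from adduct peaks that were selected by computer and manually inspected. Over 3 months, mixtures of ~100 molecules were run by HPLC–quadrupole time-of-flight mass spectrometry in positive and negative ionization mode. The Zorbax Extend-C18 column (2.1 × 50 mm, 1.8 μm) ran at 100 μL/min in water and acetonitrile, each containing 0.1% formic acid, with 40 μL dead volume and 900 μL dwell volume.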
In turn, `COc1ccc(-c2noc(CCCC(=O)Nc3nc(-c4ccccc4)cs3)n2)cc1OC` came in with an RP-LC retention time of 982 s.

The compound `COc1ccc(CN(Cc2ccccc2)Cc2cc(=O)n3ccccc3n2)cc1` yielded an RP-LC retention time of 666 s.

In turn, `O=C(c1csc(N2CCN(c3ccc(F)cc3)CC2)n1)N1CCCC1` displayed an RP-LC retention time of 963 s.

With `Cc1cccc(N2CCN(c3ccc4cc(S(=O)(=O)N5CCCC5)ccc4n3)CC2)c1C`, the RP-LC retention time is 1150 s.

For `COc1ccc(NC(=O)c2noc3c2CCC3)cc1OC`, the RP-LC retention time was determined as 811 s.

Take `COC(=O)c1c(C)[nH]c(C(=O)N2CCC(CC(=O)NCCCc3ccccc3)CC2)c1C`: the RP-LC retention time worked out at 867 s.

In the case of `O=C(NCCCc1ccccc1)C1CCCN(C(=O)Cc2cccc3ccccc23)C1` (centres undefined), the RP-LC retention time came out at 944 s.

In the case of `Cc1ccccc1-n1ccn(Cc2nc(-c3ccc(F)cc3)no2)c(=O)c1=O`, the RP-LC retention time is 844 s.

For `COc1cc(/C=C2\SC(=O)N(CC(=O)Nc3nccs3)C2=O)cc(OC)c1OC`, the RP-LC retention time was 777 s.

The compound `Cc1csc(-c2ccc(N3CCN(C(=O)c4ccc5c(c4)OCO5)CC3)nc2)n1` returned an RP-LC retention time of 791 s.

Regarding `O=C(Cn1nc2ccc(C(=O)NCc3ccccc3)cn2c1=O)NCCC1=CCCCC1`, the RP-LC retention time worked out at 811 s.

The compound `O=S(=O)(c1ccc2nc(N3CCN(c4ccc(F)cc4)CC3)ccc2c1)N1CCOCC1` returned an RP-LC retention time of 890 s.

In the case of `O=C(Nc1cnc(N2CCOCC2)nc1)c1cc(F)cc(F)c1`, the RP-LC retention time was 789 s.

As to `O=C(c1ccccc1F)N1CCC(COCc2ccccc2)CC1`, the RP-LC retention time stood at 945 s.

`CSc1ccc(CNC(=O)COc2cc(C)nc(N3CCN(c4ccccc4)CC3)n2)cc1` displayed an RP-LC retention time of 857 s.

`CCc1ccc(CNC(=O)Cn2c(CC)nc3onc(C)c3c2=O)cc1` came in with an RP-LC retention time of 907 s.

`COc1ccc(-c2noc(-c3nc(-c4ccccc4F)no3)n2)cc1OC` returned an RP-LC retention time of 1110 s.

As to `CC(C)N1CCN(C(=O)c2csc(N3CCN(c4ccc(Cl)cc4)CC3)n2)CC1`, the RP-LC retention time worked out at 706 s.

`CCCCN(C)c1nc(-c2ccc(Cl)cc2Cl)nc2ccccc12` gave an RP-LC retention time of 893 s.

As to `CCCNC(=O)CCc1nc2ccccc2n(CC(=O)Nc2ccc(C(C)C)cc2)c1=O`, the RP-LC retention time turned out to be 891 s.

As for `Cc1noc(C2CN(C(=O)Nc3cc(F)ccc3F)CC23CCOCC3)n1` (centres undefined), the RP-LC retention time amounted to 733 s.

Compound `COc1ccc(NC(=O)N2CCCC2c2nc(-c3ccccc3OC)no2)c(OC)c1` (centres undefined) came in with an RP-LC retention time of 871 s.

`Cc1c(Cl)cccc1NC(=O)C(C)C1CCN(C(=O)Nc2ccc(F)cc2)CC1` (centres undefined): the RP-LC retention time came out at 904 s.

As for `CCCOc1nccnc1NC1CCN(C(=O)c2cccs2)CC1`, the RP-LC retention time turned out to be 814 s.

The compound `Cn1cncc1C(=O)N1CC(F)(F)C[C@H]1c1nc(C2CC2)no1` had an RP-LC retention time of 620 s.

For the compound `CCOC(=O)c1[nH]c(C)c(CCC(=O)N2CCC(C(=O)NC3CCCCCC3)CC2)c1C`, the RP-LC retention time amounted to 823 s.

Compound `CC(C)CNC(=O)c1c2c(nc3ccccc13)CCCC2` yielded an RP-LC retention time of 639 s.

In turn, `Cc1cc(C)cc(NC(=O)c2cccn2Cc2noc(C3CC3)n2)c1` yielded an RP-LC retention time of 994 s.

For `Cc1ccc(-n2c(=O)c3sccc3n(Cc3nc(-c4ccc(C)c(C)c4)no3)c2=O)cc1`, the RP-LC retention time was 1150 s.

`COc1ccc(NC(=O)C2CCN(S(C)(=O)=O)c3ccccc3O2)cc1Cl` (centres undefined) showed an RP-LC retention time of 921 s.

In turn, `COc1ccc(CNC(=O)Cn2cc(-c3nnc(C)o3)ccc2=O)cc1` gave an RP-LC retention time of 635 s.

For the compound `Cc1cccc(-c2noc(CN3C(=O)COc4ccccc43)n2)c1`, the RP-LC retention time was 1030 s.

As for `O=C(COc1cc(O)c2c(=O)c3ccccc3oc2c1)c1ccc(Br)cc1`, the RP-LC retention time was found to be 1280 s.

In turn, `O=C(c1ccccc1Cl)N1CCCC(c2nnc(-c3cccs3)o2)C1` (centres undefined) came in with an RP-LC retention time of 775 s.

The compound `COc1ccccc1CC1C(=O)Nc2ccc(Br)cc21` (centres undefined) came in with an RP-LC retention time of 976 s.

Turning to `O=C(Nc1ccc2c(c1)OCCO2)C1CCN(C(=O)C2Sc3ccccc3NC2=O)CC1` (centres undefined), the RP-LC retention time came out at 730 s.

Compound `O=C(NCCN1CCN(C(=O)Cn2ccc3ccccc32)CC1)c1cccs1` showed an RP-LC retention time of 572 s.

With `Cc1cccc(NC(=O)CN2C(=O)CC(C)S(=O)(=O)c3ccccc32)c1C` (centres undefined), the RP-LC retention time turned out to be 789 s.

As to `Cc1ccccc1OCc1nc(C2CN(C(=O)NC(C)C)C2)no1`, the RP-LC retention time was 804 s.

`Cc1ccc(NC(=O)CN2C(=O)C3CCCCN3c3ccc(S(=O)(=O)N4CCCCC4)cc32)cc1` (centres undefined) registered an RP-LC retention time of 987 s.

With `Cc1cc(NC(=O)c2nc3ccccc3s2)n(C(C)C)n1`, the RP-LC retention time was found to be 806 s.

`Cc1ccc(NC(=O)Nc2nccn(-c3ccc(F)c(F)c3)c2=O)cc1F` registered an RP-LC retention time of 1020 s.

With `O=C(Cn1c(=O)n(-c2ccc(F)cc2)c2ncccc21)NCCN1CCCCCC1`, the RP-LC retention time worked out at 625 s.

Take `O=C(NCCc1csc(-c2cccs2)n1)C1CCN(S(=O)(=O)c2ccccc2F)CC1`: the RP-LC retention time was 872 s.

`O=C(c1ccc(N2CCN(c3ncccn3)CC2)nn1)N1CCc2ccccc21` gave an RP-LC retention time of 784 s.

In the case of `Cc1nnc2ccc(S(=O)(=O)Nc3cccc(Cl)c3)cn12`, the RP-LC retention time was found to be 724 s.

The compound `COc1ccc(OC)c(S(=O)(=O)N(C)CC2(C)CCOCC2)c1` yielded an RP-LC retention time of 852 s.

Regarding `CN1CCN(C(=O)C2CCN(c3nc4ccc(-c5ccc(F)cc5)nc4s3)CC2)CC1`, the RP-LC retention time stood at 674 s.

`Cc1nc(C)c(C(=O)N2CCC(C(=O)N3CCCCCCNC(=O)CC3)CC2)s1` returned an RP-LC retention time of 602 s.

As for `Cc1oc2ncn(CC(=O)N3CCN(c4ccccn4)CC3)c(=O)c2c1C`, the RP-LC retention time is 565 s.

With `COCCNC(=O)c1cc(C)nc2ccc(Br)cc12`, the RP-LC retention time is 636 s.

The compound `COc1cc(OC)cc(C(=O)NCC2(O)CCOCC2)c1` displayed an RP-LC retention time of 589 s.

`CC(C)c1ccc(NC(=O)Cn2cccc2-c2nc(-c3ccc4c(c3)OCO4)no2)cc1`: the RP-LC retention time was found to be 1220 s.

For the compound `Cc1nc(Nc2ccc(Cl)cn2)sc1C(=O)NCCN(C)C`, the RP-LC retention time amounted to 602 s.

`CCCC(=O)Nc1ccc(CCc2nc3ccc(C(=O)NCCC(C)C)cc3[nH]2)cc1` had an RP-LC retention time of 674 s.

Turning to `O=C(Nc1cc(F)ccc1Cl)c1csc(-c2ccc(N3CCCC3)nc2)n1`, the RP-LC retention time turned out to be 994 s.

The compound `O=S(=O)(Cc1ccccc1Cl)NCC1CCN(Cc2ccsc2)CC1` had an RP-LC retention time of 588 s.

For `CC(C)N1CCCC(Cn2cc(COc3ccc4c(c3)CCC4)nn2)C1` (centres undefined), the RP-LC retention time worked out at 667 s.

Take `CSc1cccc2sc(NC(=O)C3CCN(S(C)(=O)=O)CC3)nc12`: the RP-LC retention time came to 779 s.

In the case of `CCOC(=O)C1CCN(C(=O)Cn2cnc3nc4c(cc3c2=O)CCCC4)CC1`, the RP-LC retention time was determined as 678 s.

`COCCNC(=O)c1c2c(cn(-c3ccc(Cl)cc3)c1=O)C(=O)CC(C)(C)C2` returned an RP-LC retention time of 856 s.

`O=c1n(Cc2cccc(Br)c2)nc2c(S(=O)(=O)N3CCCC3)cccn12` gave an RP-LC retention time of 887 s.

The compound `Cc1ccc2[nH]cc(CCN3CC(C(=O)Nc4nnc(C(C)(C)C)s4)CC3=O)c2c1` (centres undefined) had an RP-LC retention time of 801 s.

Compound `O=C(Nc1ccc(Cl)cc1)N1CCCC1c1nc(-c2ccc(F)cc2F)no1` (centres undefined) showed an RP-LC retention time of 1040 s.

`Cc1ccc(-n2ccc(=O)c(-c3nc(-c4ccc(F)c(Br)c4)no3)n2)cc1`: the RP-LC retention time is 1080 s.

The compound `O=C(Cc1nnc(-c2ccc3ncccc3c2)o1)N1CCN(c2ccccc2)CC1` yielded an RP-LC retention time of 716 s.

For the compound `CCOC(=O)C1=C(C)N(CC(=O)NC2CCCC2)c2ncnn2C1c1ccccc1` (centres undefined), the RP-LC retention time was 666 s.

`Cc1ccc(Cl)c(NS(=O)(=O)c2cc(-c3[nH]ncc3C(=O)N(C)C)oc2C)c1` showed an RP-LC retention time of 717 s.

`Cc1nc(-c2cn(C)c3ncccc23)sc1C(=O)Nc1ccc(F)cc1Cl` displayed an RP-LC retention time of 1050 s.

The compound `COc1ccc(CNC(=O)C2CCCN(c3nccnc3Sc3ccccc3)C2)c(OC)c1` (centres undefined) returned an RP-LC retention time of 1020 s.

On to `CCC(C)NC(=O)c1cc2c(n(-c3ccc(C(F)(F)F)cc3)c1=O)CCCC2=O` (centres undefined), for which the RP-LC retention time was 946 s.

Compound `O=C(CN1C[C@H]2C[C@H](C1)[C@H]1CCCC(=O)N1C2)Nc1ccc2c(c1)OCCO2` showed an RP-LC retention time of 587 s.

As to `Cc1nnc(N2C(=O)C(O)=C(C(=O)c3ccco3)C2c2ccc([N+](=O)[O-])cc2)s1` (centres undefined), the RP-LC retention time worked out at 793 s.

Regarding `CC(NC(=O)C1CCN(c2cnn(Cc3ccccc3)c(=O)c2)CC1)c1ccccc1` (centres undefined), the RP-LC retention time stood at 803 s.

On to `COC(=O)c1cc(-c2c[nH]cc2C(=O)OCc2ccccc2)cn1S(=O)(=O)c1ccc(C)cc1`, for which the RP-LC retention time was 1060 s.

As for `CCn1cc(C(=O)NC(C)c2ccc(OC)c(OC)c2)c(=O)c2ccc(C)nc21` (centres undefined), the RP-LC retention time was 885 s.

The compound `O=C(c1ccco1)N1CCN(C(=O)C2CN(S(=O)(=O)C3CC3)CC23CCCCC3)CC1` (centres undefined) had an RP-LC retention time of 758 s.

Consider `Cc1ccccc1-c1noc(Cn2nc(-c3ccc4c(c3)OCO4)ccc2=O)n1`, for which the RP-LC retention time amounted to 943 s.

`COc1cccc(NC(=O)CC(=O)Nc2ccc3nc4n(c(=O)c3c2)CCCCC4)c1` yielded an RP-LC retention time of 1210 s.

(Values after the METLIN SMRT retention time set (Domingo-Almenara et al. 2019).)
